# From patent publication US8569356B2, “Cyclin dependent kinase inhibitors” (University of Florida Research Foundation, Inc., priority 2005, dated 2013)
# pIC50: −log10 of the molar value. “Also recorded” adds a separate entry of the source.
# Assays:
# PC-3 tumor cells = assay: PC-3 tumor in mice, intratumoral injection with CD44 RNA interference; assay type: in vivo; conditions: combined with CD44 RNA interference, after 11 days of injection, three treated animals
# Experimental: The effect of 4-tert-Butyl-2-nitroaniline when combined with CD44 RNA interference was therefore investigated.
# Seven-wk-old mice (Jackson Laboratory, Bar Harbor, Me.) were injected in the right flank with 2×10^6 PC-3 tumor cells in 500 μl liquid Matrigel. […] By 14 days after injection, a tumor mass was palpable and at 27 days, 4-tert-Butyl-2-nitroaniline and CD44 RNAi therapy commenced. Gene transfection was controlled for quantitation by injecting a constant 10 μg of vector. This approach involved mixing volume of DNA containing 10 μg of pU6BS (and subsequently pTracer) plasmid having the CD44 RNAi construct with 10 μl of Metafectene before injection into the tumor. Both Metafectene and DNA were diluted separately in 100 μl of sterile serum-free RPMI before mixing (see, e.g., Iczkowski K A, Omara-Opyene A L, and Klösel R., Molecular Biotechnology 2004; 28:97-103). The mixture was then allowed to stand for 30 minutes before injection to allow the formation of Metafectene:DNA complexes.
# Intra-tumoral injection was performed five times weekly, angling the needle at different areas of the tumor during a given injection as well as varying the injection site for each injection occasion. Control animals were injected with 100 μl consisting of 50 μl empty vector/medium plus 50 μl of Metafectene.
# PC3 prostate tumor cells = assay: Mouse xenograft tumor model, PC3; assay type: in vivo, SCID mice; conditions: intratumoral, 1:50 dilution (2 mM), compared with 1:50 DMSO in PBS in two controls
# Experimental: A compound of the invention (Compound 1) was tested in a mouse xenograft tumor model to determine whether the compound can inhibit tumor growth in vivo.
# SCID mice were subcutaneously implanted with PC3 prostate tumor cells in the flank and were administered intratumorally with controls (DMSO) or a test compound.
# The two control animals were sacrificed when the total tumor volume (L×W×H) exceeded 1.5 cc. The treated animal was sacrificed because a small but significant skin ulceration was developing over the tumor.
# [1] = test system: prostate cancer cell line, Gs-α; assay: Matrigel cell invasion assay; assay type: cell-based; conditions: Matrigel invasion chambers, 36 h
# Experimental: A cell invasion assay was performed on an aggressive prostate cancer cell line, Gs-α, to determine the effects of selected compounds that inhibit cell proliferation.
# The experiment was performed in six-well Matrigel two-tier invasion chambers (Collaborative Biomedical Products, Bedford, Mass., USA), using a protocol similar to that used successfully by others (see, e.g., Chien J, Wong E, Nikes E et al., Oncogene 1999; 18: 3376-3382, incorporated herein by reference). […]
# While the membranes were still wet in culture dishes, the GFP-positive cells on the entire membrane were counted under fluorescent illumination. […] The total number of cells on the entire gel was counted. The data from invasion assay were corrected for cell growth during experimental periods as follows: the experimental cells were plated at a density of 10^5 cells per well in six-well control inserts in chemoattractant medium and increase in cell number were determined after 48 h. […] The results were expressed as mean±standard deviation. […]
# Significance of differences in Percent Invasion according to treatment (or transfection of Metafectene vehicle alone) were assessed by Student's t-test.
# [2] = test system: BT549 breast cancer cells; assay: 3H-thymidine incorporation assay, BT549; assay type: cell-based, human
# Experimental: FIG. 4. Compounds #1, #7, and #11 inhibit proliferation of BT549 breast cancer cells. BT549 cells were treated for 24 hours with the indicated “Pocket #1” compounds. The effect of treatment on cell proliferation was quantitated by measuring the amount of ^3H-Thymidine incorporated into cellular DNA over a two hour time interval. The results are presented as the average of triplicate determinations ±standard deviation.
# FIG. 5. Compounds predicted to bind to “Pocket #2” inhibit proliferation of BT549 breast cancer cells. BT549 cells were treated for 24 hours with the indicated “Pocket #2” compounds. The effect of treatment on cell proliferation was quantitated by measuring the amount of ^3H-Thymidine incorporated into cellular DNA over a two hour time interval. The results are presented as the average of triplicate determinations ±standard deviation.
# Additional ^3H-thymidine incorporation assays were performed to determine whether the “Pocket #2” binding drugs (see Table 2) inhibit cell proliferation at concentrations lower than 100 μM.
# DU145 cells = assay: 3H-thymidine incorporation assay, DU145; assay type: cell-based, human; conditions: 100 μM, 24 hours
# Text: (§1) FIG. 2. In silico molecular docking and preliminary analysis of potential Cyclin/Cdk2 inhibitors. (A) Cyclin A/Cdk2/p27 complex with spheres docked into the binding pocket (Pocket #1) and the pocket enclosed in a scoring grid (rectangular box). (B) Binding cleft shown filled with spheres, the top 10 hits superimposed into the binding pocket (All Hits), and the predicted mode of binding of individual hits in the Cyclin A/Cdk2/p27 pocket (Hits #3-10). (C) NMuMG (black bars) or DU145 cells (open bars) were treated for 24 hours with 100 μM of the indicated compounds and ^3H-thymidine incorporation was measured to assess rates of cell proliferation. Roscovitine is a known Cdk inhibitor and was included as a positive control. DMSO (0.1%) was included as a vehicle control. (D) Morphological change induced by 100 μM Hit #10 in NMuMG and DU145 cells after treatment for 24 hours.
# (§2) Labeled thymidine (^3H-thymidine) incorporation assays were used to screen compounds at a concentration of 100 μM using mouse mammary epithelial cells and the human prostate cancer cell line DU145.
# Human prostate cancer DU145 cells were plated at 30,000 cells per well in 24-well plates and allowed to attach for 24 hours. The cells were treated for 24 hours with either 100 μM of the indicated compounds, 0.1% DMSO as a vehicle control, or left untreated. The cells were pulsed with ^3H-thymidine for two hours. The cells were fixed in 10% trichloroacetic acid and washed a total of three times with 10% trichloroacetic acid. The ^3H-thymidine-labeled DNA was dissolved in 0.2% NaOH, mixed with scintillation fluid, and the associated radioactivity quantitated using a scintillation counter. These experiments were performed in triplicate and the results are presented as the average thymidine incorporation±standard deviation. […]
# NMuMG cells = assay: 3H-thymidine incorporation assay, NMuMG; assay type: cell-based, mouse; conditions: 100 μM, 24 hours
# Text: as §1, §2
# Seven of the molecules identified in Example 1 as having the top estimated binding energies (Hits/Compounds 3, 4, 6, 7, 8, 9, and 10) were obtained and tested for their ability to induce cell cycle arrest of mouse mammary NMuMG and DU145 human prostatic carcinoma cell lines in ^3H-thymidine incorporation assays (FIG. 2C). […] Thus at least five of the ten top-ranked compounds are cell permeable and induce an appreciable arrest of cancer cell proliferation.
# Cdk2 [3] = biological target: T1, Cdk2 (Homo sapiens, UniProt P24941); assay: Immunofluorescence microscopy of Cdk2 distribution; assay type: cell-based; parameters: endogenous in cells; conditions: MDA-MB-468 breast cancer cells, 24 hours
# Experimental: FIG. 6. Immunofluorescence microscopy of cellular distribution of Cdks in the absence (upper panels) and presence (lower panels) of a compound of the invention. MDA-MB-468 breast cancer cells were treated with the indicated concentration of pocket 1 compound #7 for 24 hours. Immunofluorescence microscopy was performed using an antibody to Cdk2. […] These aggregates are most apparent at sites of cell-cell contact.
# (§3) It appears that compounds of the invention can cause redistribution of Cdk1, Cdk2, and Cdk4 in cells.
# Cdk1 [4] = biological target: T2, Cdk1 (Homo sapiens, UniProt P06493); assay: Immunofluorescence microscopy of Cdk1 distribution; assay type: cell-based
# T2 construct: endogenous in cells; host or cells: BT549
# T2 sequence (P06493 whole entry): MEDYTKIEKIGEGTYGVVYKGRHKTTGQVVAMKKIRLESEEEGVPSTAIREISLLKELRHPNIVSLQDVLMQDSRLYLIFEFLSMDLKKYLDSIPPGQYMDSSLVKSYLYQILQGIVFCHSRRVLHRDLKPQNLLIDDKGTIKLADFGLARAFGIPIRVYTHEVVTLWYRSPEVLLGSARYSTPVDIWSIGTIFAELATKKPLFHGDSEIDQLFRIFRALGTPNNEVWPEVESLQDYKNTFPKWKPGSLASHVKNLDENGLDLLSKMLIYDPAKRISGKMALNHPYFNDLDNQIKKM
# Text: as §3
# Cdk1 [5] = biological target: T2, Cdk1; assay: Immunoblot of cellular Cdk1 level in BT549 cells; assay type: cell-based; conditions: 24 or 48 hours, time- and dose-dependent
# Experimental: (§4) BT549 cells were treated with the indicated Pocket #1 compounds for the indicated intervals. Cell lysates were prepared and the amounts of Cdk1, Cdk2, and Cdk4 were determined by immunoblot. Actin staining serves as a loading control. DMSO serves as a vehicle control.
# (§5) Human breast cancer BT549 cells were treated as indicated for 24 or 48 hours with either 0.2% DMSO as a vehicle control, or compounds #3, #4, and #7 at the indicated concentrations. Cell lysates were prepared, normalized for protein content, resolved by SDS-PAGE and the proteins transferred to nitrocellulose. Levels of Cdk1, Cdk2, and Cdk4 were measured using primary antibodies specific for these proteins, followed by alkaline-phosphatase-conjugated secondary antibodies and colorimetric detection using the substrate NBT/BCIP.
# Cdk2 [6] = biological target: T1, Cdk2; assay: Immunoblot of cellular Cdk2 level in BT549 cells; assay type: cell-based; parameters: endogenous in cells; host or cells: BT549; conditions: 24 or 48 hours, time- and dose-dependent
# Experimental: as §4, §5
# Cdk4 [7] = biological target: T3, Cdk4 (Homo sapiens, UniProt P11802); assay: Immunoblot of cellular Cdk4 level in BT549 cells; assay type: cell-based; conditions: 24 or 48 hours, time- and dose-dependent
# T3 construct: endogenous in cells; host or cells: BT549
# T3 sequence (P11802 whole entry): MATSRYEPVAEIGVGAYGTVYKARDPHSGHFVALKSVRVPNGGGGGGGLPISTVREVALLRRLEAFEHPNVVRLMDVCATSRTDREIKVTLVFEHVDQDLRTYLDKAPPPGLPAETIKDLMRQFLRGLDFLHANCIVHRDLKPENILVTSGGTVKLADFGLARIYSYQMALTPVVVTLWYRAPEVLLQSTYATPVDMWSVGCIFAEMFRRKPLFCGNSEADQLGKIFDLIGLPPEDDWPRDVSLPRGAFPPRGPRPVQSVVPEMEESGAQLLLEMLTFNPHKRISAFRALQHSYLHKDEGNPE
# Experimental: as §4, §5
# Cdk4 [8] = biological target: T3, Cdk4; assay: Immunofluorescence microscopy of Cdk4 distribution; assay type: cell-based
# Text: as §3
# [9] = test system: multiple human cancer cell lines; conditions: NCI screen, read-out: average 50% inhibitory concentration (IC50), proliferation; cited from earlier work
structure (smiles),measurement,setting,value
"CC(C)(C)c1ccc(N)c([N+](=O)[O-])c1 [Compound 3, 4-tert-Butyl-2-nitroaniline]",decrease of tumor volume,PC-3 tumor cells,more than 50%
Cc1ccc(C(=O)/C=C/c2ccccc2)s1 [Compound 1],tumor growth,PC3 prostate tumor cells,markedly reduced tumor growth
same,cell invasiveness in vitro,[1],inhibit cell invasiveness
same,potency compared with Compound 7,[2],more potent than Compound 7
same,effective concentration for inhibition of proliferation,[2]; 24 hours,low micromolar concentrations
same,inhibition of proliferation (3H-thymidine incorporation),[2]; 24 hours,inhibit the proliferation
c1ccc(OSOc2ccccc2)cc1 [Compound 10],inhibition of cell proliferation (3H-thymidine incorporation),DU145 cells,significantly inhibited proliferation
same,morphological change,DU145 cells,dramatic morphological change
same,inhibition of cell proliferation (3H-thymidine incorporation),NMuMG cells,significantly inhibited proliferation
same,morphological change,NMuMG cells,dramatic morphological change
"COc1ccc(C(C#N)=Cc2ccccn2)cc1 [Compound 7, 2-(4-methoxyphenyl)-3-pyridin-2-yl-prop-2-enenitrile]",Cdk2 localization,Cdk2 [3],aggregates appear primarily at cell-cell junctions; also recorded: change in Cdk2 localization consistent with aggregation
same,Cdk1 localization,Cdk1 [4],aggregates appear primarily at cell-cell junctions
same,cellular level of Cdk1,Cdk1 [5],Decrease the Cellular Levels
same,inhibition of proliferation (3H-thymidine incorporation),[2]; 24 hours,inhibit the proliferation
same,cellular level of Cdk2,Cdk2 [6],Decrease the Cellular Levels
same,cellular level of Cdk4,Cdk4 [7],Decrease the Cellular Levels
same,inhibition of cell proliferation (3H-thymidine incorporation),DU145 cells,significantly inhibited proliferation
same,Cdk4 localization,Cdk4 [8],aggregates appear on top of the nuclei
same,inhibition of cell proliferation (3H-thymidine incorporation),NMuMG cells,significantly inhibited proliferation
O=C(N/N=C\c1cc(Br)ccc1O)N/N=C/c1cc(Br)ccc1O [VDW9],inhibition of proliferation (3H-thymidine incorporation),"[2]; 2 μM, 24 hours",inhibited proliferation
same,inhibition of proliferation (3H-thymidine incorporation),"[2]; 10 μM, 24 hours",inhibited proliferation
"COc1ccc2oc3cccc(NN(C)C)c3c(=O)c2c1 [Compound 2, 1-(N′,N′-Dimethyl-hydrazino)-7-methoxy-xanthen-9-one]",pIC50,[9],4.92
